Test: Thermogravimetric analysis (TGA) of crystalline forms
Format: physicochemical
Conditions: TGA thermogram; ramp from 25° C. to 600° C. at 20° C./min, nitrogen purge
Description: Crystalline forms of the compound of Formula I were analyzed using a TA Instruments Thermogravimetric Analyzer, TGA Q500 with autosampler. The general experimental conditions for TGA were ramp from 25° C. 600° C. at 20° C./min; nitrogen purge, gas flow at 25 mL/min; platinum sample pan.

SMILES | TGA: degradation occurring after [°C]
Cc1cnc(NC(=O)[C@H]2CCC[C@@H](NC(=O)CC#N)C2)cc1-c1cc(F)c2ncn(C(C)C)c2c1 [Form I] | > 176
Cc1cnc(NC(=O)[C@H]2CCC[C@@H](NC(=O)CC#N)C2)cc1-c1cc(F)c2ncn(C(C)C)c2c1 [Form II] | > 176

— patent US20250011298A1, “CRYSTALLINE FORMS OF A CDK9 INHIBITOR AND USES THEREOF” (PRELUDE THERAPEUTICS INCORPORATED, priority 2021, published 2025)
